Experimental findings from paper PMC12652692, “Synthesis and In Vitro Anticancer Evaluation of Novel Phosphonium Derivatives of Chrysin” (International Journal of Molecular Sciences, 2025) are described below.

What all share (assay): NCI60 one-dose screen
Holding throughout (type): cell-based

The test system of test [1] is 786-0. As to conditions: Homo sapiens; 786-0, 10 μM; read-out: Growth percent. In a few lines:
(§1)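 SRB read-out (515 nm) after 48 h drug exposure at 37 °C, 5% CO2; single dose 10 µM. Value = growth relative to no-drug control and time-zero cell count; 100 = no inhibition, 0 = no net growth, negative = lethality.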

For test [2], the system named is ACHN. Conditions: Homo sapiens, read-out: Growth percent. Summed up:
as §1

For test [3], the system named is COLO 205. As to conditions: Homo sapiens; COLO 205, 10 μM; read-out: Growth percent. In a few lines: as §1
For test [4], the system named is DU-145. Conditions: Homo sapiens; DU-145, 10 μM; read-out: Growth percent. In a few lines: as §1
The subject of test [5] is HOP-62. Conditions: Homo sapiens; HOP-62, 10 μM; read-out: Growth percent. Summed up: as §1
The test system of test [6] is HT29. As to conditions: Homo sapiens, HT-29; HT29, 10 μM; read-out: Growth percent. Summed up: as §1
Test [7] has as its system M14. As to conditions: Homo sapiens; M14, 10 μM; read-out: Growth percent. Summed up:
as §1

Test [8] concerns MCF7. As to conditions: Homo sapiens; MCF7, 10 μM; read-out: Growth percent. In a few lines: as §1
In test [9] the test system is MDA-MB-231/ATCC. As to conditions: Homo sapiens, read-out: Growth percent. In a few lines:
as §1

The subject of test [10] is MDA-MB-435. As to conditions: Homo sapiens; MDA-MB-435, 10 μM; read-out: Growth percent. In a few lines:
as §1

Test [11] deals with MDA-MB-468. As to conditions: Homo sapiens; MDA-MB-468, 10 μM; read-out: Growth percent. In a few lines: as §1
The subject of test [12] is NCI-H226. As to conditions: Homo sapiens; NCI-H226, 10 μM; read-out: Growth percent. Summed up: as §1
The test system of test [13] is NCI-H23. As to conditions: Homo sapiens; NCI-H23, 10 μM; read-out: Growth percent. In a few lines: as §1
Test [14] concerns OVCAR-4. As to conditions: Homo sapiens; OVCAR-4, 10 μM; read-out: Growth percent. Summed up: as §1
The test system of test [15] is RPMI-8226. As to conditions: Homo sapiens; RPMI-8226, 10 μM; read-out: Growth percent. Summed up: as §1
Test [16] concerns SF-539. Conditions: Homo sapiens; SF-539, 10 μM; read-out: Growth percent. Summed up:
as §1

Test [17] relates to SK-MEL-2. Conditions: Homo sapiens; SK-MEL-2, 10 μM; read-out: Growth percent. In a few lines:
as §1

The test system of test [18] is SK-MEL-5. Conditions: Homo sapiens; SK-MEL-5, 10 μM; read-out: Growth percent. Summed up: as §1
In test [19] the test system is SK-OV-3. Conditions: Homo sapiens; SK-OV-3, 10 μM; read-out: Growth percent. In a few lines:
as §1

Test [20] concerns SNB-19. As to conditions: Homo sapiens; SNB-19, 10 μM; read-out: Growth percent. In a few lines:
as §1

Regarding `COc1ccc([P+](CCCCOc2cc(O)c3c(=O)cc(-c4ccccc4)oc3c2)(c2ccc(OC)cc2)c2ccc(OC)cc2)cc1` [3c], the activity at 10 µM is -65.3% in test [1]; -63.5% in test [2]; -68.3% in test [3]; -90.7% in test [4]; -81.1% in [5]; -82.8% in [6]. In addition, the activity at 10 µM is -1.24% in [7]; -56.8% in test [8]; -72.1% in test [9]; -89.6% in test [10]; -77.4% in test [11]; -67.6% in [12]. Further, the activity at 10 µM in test [13] is -77%; in test [14] it was -74.3%; in [15], -67.5%; in test [16], -66.9%; in test [17], -88.6%; in test [18], -93.9%. The activity at 10 µM in [19] was -77.7%; in test [20], -78.9%.

Consider `Cc1ccccc1[P+](CCCCOc1cc(O)c2c(=O)cc(-c3ccccc3)oc2c1)(c1ccccc1C)c1ccccc1C` [3g], for which the activity at 10 µM in test [1] was -98.1%; in test [2], -97%; in test [3], -97%; in test [4], -97.1%; in [5], -98.3%; in test [6], -97.9%. Further, the activity at 10 µM in test [7] was -97.5%; in test [8] it was -95.4%; in [10], -98.3%; in test [11], -99.4%; in test [12], -99.4%; in test [13] it was -98.4%. Moreover, the activity at 10 µM is -98.7% in test [14]; -98.5% in test [15]; -97.7% in [16]; -98.5% in test [17]; -97.9% in test [18]; -97.9% in test [19]. In addition, the activity at 10 µM in [20] was -97.4%.

For `O=c1cc(-c2ccccc2)oc2cc(OCCCC[P+](c3ccccc3)(c3ccccc3)c3ccccc3)cc(O)c12` [3a], the activity at 10 µM is -69.5% in test [1]; -100% in [2]; -56.3% in test [3]; -94.8% in test [4]; -63.6% in [5]; -65% in test [6]. Moreover, the activity at 10 µM in test [7] is -70.1%; in [8] it was -79.1%; in test [9], -32.2%; in test [10], -67.5%; in test [11], -84.9%; in test [12], -29%. Besides, the activity at 10 µM is -93% in [13]; -69.1% in test [14]; -66.7% in test [15]; -95.7% in test [16]; -94.1% in test [17]; -98.4% in test [18]. Besides, the activity at 10 µM in [19] was -83.4%; in [20] it was -44.5%.

Regarding `O=c1cc(-c2ccccc2)oc2cc(OCCCC[P+](C3CCCCC3)(C3CCCCC3)C3CCCCC3)cc(O)c12` [3e], the activity at 10 µM in test [1] was -80.1%; in test [2], -72.5%; in [3] it was -70.2%; in [4], -96.1%; in [5], -82.6%; in [6] it was -84.9%. Further, the activity at 10 µM in test [7] is -82.2%; in test [8] it was -77%; in test [9], -81.6%; in [10], -93.6%; in test [11], -83.5%; in [12], -56.7%. Moreover, the activity at 10 µM in test [13] is -88.5%; in test [14] it was -64.5%; in test [15], -62.6%; in [16], 87.1%; in test [17], -91.9%; in [18], -100%. The activity at 10 µM in [19] was -82.4%; in test [20] it was -87.6%.

For the molecule `COc1c(C)cc([P+](CCCCOc2cc(O)c3c(=O)cc(-c4ccccc4)oc3c2)(c2cc(C)c(OC)c(C)c2)c2cc(C)c(OC)c(C)c2)cc1C` [3f], the activity at 10 µM in [1] is -47%; in test [2], -88.4%; in [3], -62.2%; in test [4], -92.7%; in [5], -25.2%; in test [6], -72.7%. Further, the activity at 10 µM was -68.3% in [7]; -58% in [8]; -74.8% in [9]; -81.9% in test [10]; -76% in [11]; -58.5% in test [12]. In addition, the activity at 10 µM in test [13] is -77.3%; in [14], -65.5%; in test [15], -42.9%; in test [16], -89.2%; in [17] it was -77.6%; in test [18] it was -75.2%. Besides, the activity at 10 µM in test [19] was -58.3%; in [20], -76.8%.

Consider `O=c1cc(-c2ccccc2)oc2cc(OCCCC[P+](c3ccccc3)(c3ccccc3)c3ccccn3)cc(O)c12` [3h], for which the activity at 10 µM in test [1] was -74.5%; in test [2], -98%; in test [3] it was -75.9%; in test [4], -95.3%; in test [5], -57%; in test [6], -60.6%. Moreover, the activity at 10 µM was -84.3% in [7]; -62.6% in test [8]; -94.3% in test [9]; -80.8% in test [10]; -90.7% in test [11]; -50.4% in test [12]. Also, the activity at 10 µM is -89.3% in [13]; -51.2% in test [14]; -35.3% in [15]; -96.5% in test [16]; -95.4% in test [17]; -96.3% in test [18]. For the same molecule, the activity at 10 µM is -76.5% in [19] and -91.6% in test [20].

Turning to `O=c1cc(-c2ccccc2)oc2cc(O)cc(O)c12` [compound 2, 5,7-dihydroxyflavone, reference compound], the activity at 10 µM in test [1] came to 99.2%; in test [2], 85%; in test [3], 105%; in [4], 92%; in [5], 113%; in test [6], 103%. Further, the activity at 10 µM in test [7] was found to be 107%; in test [8] it was 103%; in test [9] it was 82.6%; in test [10], 99.5%; in [11], 91.1%; in test [12], 86.8%. The activity at 10 µM came to 92.6% in test [13]; 112% in test [14]; 101% in test [15]; 92.2% in test [16]; 110% in test [17]; 92.8% in test [18]. Moreover, the figures for the activity at 10 µM in test [19] and in [20] were 128% and 86%, respectively.

For `O=c1cc(-c2ccccc2)oc2cc(OCCCC[P+](c3ccc(F)cc3)(c3ccc(F)cc3)c3ccc(F)cc3)cc(O)c12` [3d], the activity at 10 µM in test [1] is -56.5%; in test [2] it was -85.4%; in test [3] it was -68.4%; in test [4] it was -79.2%; in test [5], -70.8%; in test [6], -69.8%. In addition, the activity at 10 µM in test [7] was -75.5%; in test [8], -84.8%; in test [9], -95%; in [10], -90.8%; in test [11], -85.7%; in test [12], -56.9%. Moreover, the activity at 10 µM in test [13] was -93%; in test [14] it was -48.1%; in [15], -30.1%; in test [16], -89.6%; in test [17], -77.3%; in [18], -99.2%. The activity at 10 µM was -88.2% in [19] and -97.4% in test [20].
